From patent US12622962B2 (priority 2019, dated 2026)

Legend:
[1] = system: HBsAg antigen-specific IFN-γ; design: species or system C57BL/6(N) mice; settings: mouse, in vivo
[2] = system: HBcAg antigen-specific IFN-γ; design: species or system C57BL/6(N) mice; settings: mouse, in vivo

QS-21 [QS21]
induced production level of HBsAg-specific IFN-γ, CpG T1 with different saponins [1]: best effect | induced production level of HBcAg-specific IFN-γ, CpG T1 with different saponins [2]: best effect
